The subject of assay [1] is STING in myeloid leukemia cells. The experiment in a line: Apoptosis and pTBK1 expression after cGAMP treatment. It is filed as cell-based. Particulars: cells treated with cGAMP; FIG. 15B. On the procedure: Based on a report that STING, one of the endoplasmic reticulum membrane proteins, induces apoptosis and binds to SURF4 and STAT6, cells were treated with cGAMP, which induces STING. Specifically, cells were collected and lysed with a lysis buffer to extract proteins, which were then separated on a 10% SDS-PAGE gel and transferred to a membrane. pJNK, JNK, BAX, caspase 9, cleaved caspase 9, caspase 3, cleaved caspase 3, PARP, IRE1α, GRP78, PERK, pelF2α, elF2α, ATF4, CHOP, pSTAT6, STAT6, STING, pTBK1, and actin antibodies were each added, allowed to stand at 4° C. for 16 hours, and then a secondary antibody was added and allowed to stand at room temperature for one hour. Afterward, the resulting mixture was allowed to react with an ECL reagent, and the ECL was measured using a chemiluminescence image analyzer.

Assay [2] deals with THP1, HL60, and K562 cells. Briefly: Annexin V/7AAD apoptosis after paclitaxel treatment. It is filed as cell-based, human. Particulars: paclitaxel 0.5 μM alone, FIG. 5. On the procedure: Apoptosis was measured after treating SURF4 shRNA-transfected THP1, HL60, and K562 cells with paclitaxel. The transfected SURF4 shRNA was the same as in Example 1-(1). Specifically, the concentration of paclitaxel treated in the THP1, HL60, and K562 cells was 0.5 μM, and after transfecting the cells with SURF4 shRNA, the cells were treated with paclitaxel 7 to 10 days later. Afterward, cells of each type were collected and suspended with an Annexin V binding buffer, and then Annexin V-FITC and 7AAD were added to perform measurement using a FACS flow cytometer.

The test system of assay [3] is THP1, HL60, and K562 cells. The experiment in a line: Annexin V/7AAD apoptosis after tunicamycin treatment. The assay is classed as cell-based, human. Particulars: tunicamycin 10 μM alone, FIG. 7. On the procedure: Apoptosis was measured after treating SURF4 shRNA-transfected THP1, HL60, and K562 cells with tunicamycin. The transfected SURF4 shRNA was the same as in Example 1-(1). Specifically, the concentration of tunicamycin treated in the THP1, HL60, and K562 cells was 10 μM, and after transfecting the cells with SURF4 shRNA, the cells were treated with tunicamycin 7 to 10 days later. Afterward, cells of each type were collected and suspended with an Annexin V binding buffer, and then Annexin V-FITC and 7AAD were added to perform measurement using a FACS flow cytometer.

Assay [4] has as its system pSTAT6 in THP1 and HL60 cells. The experiment in a line: Western blot of pSTAT6 after IL4 treatment. Particulars: IL4 5 ng/ml for 60 minutes, FIG. 12. The assay is classed as cell-based, human. On the procedure: Based on a report that apoptosis is induced by pSTAT6 through IL4 in leukemia cells, the expression of pSTAT6 was confirmed by treating a leukemia cell line with IL4, which induces STAT6. Specifically, THP1 and HL60 cells transfected with 6 μg of SURF4 shRNA were lysed by treating them with IL4 (5 ng/ml) for 60 minutes, and then Western blot was performed, and the SURF4 expression in the THP1 and HL60 cells transfected with SURF4 shRNA was measured by qRT-PCR. The cells were lysed with a lysis buffer to extract proteins, which were then separated on a 10% SDS-PAGE gel and transferred to a membrane. pJNK, JNK, BAX, caspase 9, cleaved caspase 9, caspase 3, cleaved caspase 3, PARP, IRE1α, GRP78, PERK, pelF2α, elF2α, ATF4, CHOP, pSTAT6, STAT6, STING, pTBK1, and actin antibodies were each added, allowed to stand at 4° C. for 16 hours, and then a secondary antibody was added and allowed to stand at room temperature for one hour. Afterward, the resulting mixture was allowed to react with an ECL reagent, and the ECL was measured using a chemiluminescence image analyzer. In addition, RNA was extracted from the cells using an RNA extraction kit, and cDNA was synthesized from the RNA using a cDNA synthesis kit. A qRT-PCR analysis was performed using the synthesized cDNA, SURF4 primers, and a SYBR green.
A general note: In western blotting, separated proteins are transferred to a membrane and probed.

For the molecule `Nc1nc2c(ncn2[C@@H]2O[C@@H]3COP(=O)(O)O[C@H]4[C@@H](O)[C@H](n5cnc6c(N)ncnc65)O[C@@H]4COP(=O)(O)O[C@@H]2[C@@H]3O)c(=O)[nH]1` [cGAMP, cyclic guanosine monophosphate-adenosine monophosphate], in assay [1], the pTBK1 expression result is “pTBK1 downstream of STING increased”.

Turning to `CC(=O)O[C@H]1C(=O)[C@@]2(C)[C@H]([C@H](OC(=O)c3ccccc3)[C@]3(O)C[C@H](OC(=O)[C@H](O)[C@@H](NC(=O)c4ccccc4)c4ccccc4)C(C)=C1C3(C)C)[C@]1(OC(C)=O)CO[C@@H]1C[C@@H]2O` [paclitaxel], the apoptosis result in assay [2] is on record as “induced apoptosis”.

Regarding tunicamycin, in assay [3], the apoptosis entry was “induced apoptosis”.

B1: IL4: interleukin-4, which induces STAT6 / the expression of pSTAT6 (protein, UniProt P05112 25-153, looked up)
Interleukin-4: HKCDITLQEIIKTLNSLTEQKTLCTELTVTDIFAASKNTTEKETFCRAATVLRQFYSHHEKDTRCLGATAQQFHRHKQLIRFLKRLDRNLWGLAGLNSCPVKEANQSTLENFLERLKTIMREKYSKCSS
B1: the “pSTAT6 expression (Western blot)” value in assay [4] was “pSTAT6 increased in both the control cells and the cells transfected with SURF4 shRNA”.

The values are drawn from US20250019703A1, “PHARMACEUTICAL COMPOSITION FOR PREVENTION OR TREATMENT OF BLOOD CANCER COMPRISING SURF4 INHIBITOR” (PUSAN NATIONAL UNIVERSITY INDUSTRY-UNIVERSITY COOPERATION …, priority 2021, published 2025).
